How the values were obtained:
[1] = cited from earlier work
NET = target: T1, NET (Homo sapiens, UniProt P23975); experiment: Neurotransmitter Transporter Uptake Assay, NET blocker mode; assay type: cell-based
T1 construct: expressed in transfected cells
Method: Methods—Monoamine Transporter Assay: Neurotransmitter uptake via transporters was measured using the Neurotransmitter Transporter Uptake Assay Kit from Molecular Devices. Dopamine, norepinephrine or serotonin transporter activity in cells was detected using a homogeneous fluorescence based assay. Increased intracellular fluorescence intensity following uptake of biogenic amine neurotransmitters via transporters is measured and can be run in a kinetic or endpoint mode.
To determine percentage inhibition of neurotransmitter uptake via transporter, cell lines were expanded from freezer stocks, seeded into a multi-well microplate, and incubated at 37° C. Then, the compound was administered and the mix was incubated again. Following compound incubation, dye was added to the wells and the plate was re-incubated. Microplates were then transferred to a PerkinElmer Envision™ instrument for fluorescence signal detection.
Compound activity was analyzed using CBIS data analysis (ChemInnovation, CA). For blocker mode assays, percentage inhibition was calculated using the following formula: % Inhibition=100%×(1−(mean RLU of test sample−mean RLU of vehicle control)/(mean RLU of positive control−mean RLU of vehicle control)).

[2] = target: T2, nicotinic acetylcholine receptor nAChR (a4/b2) (Homo sapiens, UniProt P17787+P43681); experiment: FLIPR Membrane Potential ion channel assay, nAChR (a4/b2) blocker; assay type: cell-based; details: read-out: EC50/IC50
T2 construct: expressed in transfected cells
T2 sequence (P43681 29-627 limits assumed): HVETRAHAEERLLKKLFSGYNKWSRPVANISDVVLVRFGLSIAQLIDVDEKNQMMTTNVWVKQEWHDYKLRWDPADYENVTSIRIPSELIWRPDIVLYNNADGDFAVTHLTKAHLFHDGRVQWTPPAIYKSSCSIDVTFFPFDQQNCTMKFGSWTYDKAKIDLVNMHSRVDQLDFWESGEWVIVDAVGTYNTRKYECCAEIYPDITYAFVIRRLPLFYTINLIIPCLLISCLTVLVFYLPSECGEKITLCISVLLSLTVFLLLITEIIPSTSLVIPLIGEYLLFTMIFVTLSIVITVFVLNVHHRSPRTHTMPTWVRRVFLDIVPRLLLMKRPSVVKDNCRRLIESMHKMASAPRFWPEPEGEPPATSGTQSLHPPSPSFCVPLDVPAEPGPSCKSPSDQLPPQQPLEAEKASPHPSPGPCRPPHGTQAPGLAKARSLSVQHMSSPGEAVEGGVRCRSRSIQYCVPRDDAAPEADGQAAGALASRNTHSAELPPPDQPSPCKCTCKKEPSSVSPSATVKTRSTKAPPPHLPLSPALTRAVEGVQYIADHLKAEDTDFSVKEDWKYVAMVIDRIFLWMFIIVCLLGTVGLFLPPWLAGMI
T2 sequence (P17787 26-502): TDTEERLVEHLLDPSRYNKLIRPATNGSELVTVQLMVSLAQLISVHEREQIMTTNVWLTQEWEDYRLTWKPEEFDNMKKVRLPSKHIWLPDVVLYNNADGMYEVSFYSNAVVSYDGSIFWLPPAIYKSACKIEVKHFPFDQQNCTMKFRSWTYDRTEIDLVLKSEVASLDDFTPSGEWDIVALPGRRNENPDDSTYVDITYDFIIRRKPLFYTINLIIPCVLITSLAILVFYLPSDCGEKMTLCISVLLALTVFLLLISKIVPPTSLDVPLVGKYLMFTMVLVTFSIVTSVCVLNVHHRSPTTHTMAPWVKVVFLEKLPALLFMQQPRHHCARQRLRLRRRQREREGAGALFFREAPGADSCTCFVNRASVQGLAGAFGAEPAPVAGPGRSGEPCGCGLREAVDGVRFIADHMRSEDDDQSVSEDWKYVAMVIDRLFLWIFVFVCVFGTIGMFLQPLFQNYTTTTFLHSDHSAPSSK
Method: Methods—Ion Channel Assay: Membrane potential changes were measured using the FLIPR® Membrane potential Assay Kit. A fluorescent indicator dye in combination with a quencher is used to reflect real-time membrane potential changes associated with ion channel activation and ion transporter proteins.
To determine agonist and antagonist activity, cell lines were expanded from freezer stocks, seeded into multi-well microplates, and incubated at 37° C. Cells were then loaded with dye and incubated again.
For agonist determination, cells were incubated with the sample a different dilutions to induce a response. For antagonist determination, cells were pre-incubated with the sample at different dilutions. Following dye administration, the sample was added to the cells in the presence of EC80 agonist and then re-incubated at room temperature in the dark.
Compound activity was analyzed using CBIS data analysis suite (ChemInnovation, CA). For agonist mode assays, percentage activity was calculated using the following formula: % Activity=100%×(mean RLU of test sample−mean RLU of vehicle control)/(mean MAX control ligand−mean RLU of vehicle control).
For antagonist mode assays, percentage inhibition was calculated using the following formula: % Inhibition=100%×(1−(mean RLU of test sample−mean RLU of vehicle control)/(mean RLU of EC80 control−mean RLU of vehicle control)).

CYP2D6 = CYP2D6 (Homo sapiens, UniProt P10635); details: cited from earlier work
Sequence of CYP2D6 (P10635 whole entry): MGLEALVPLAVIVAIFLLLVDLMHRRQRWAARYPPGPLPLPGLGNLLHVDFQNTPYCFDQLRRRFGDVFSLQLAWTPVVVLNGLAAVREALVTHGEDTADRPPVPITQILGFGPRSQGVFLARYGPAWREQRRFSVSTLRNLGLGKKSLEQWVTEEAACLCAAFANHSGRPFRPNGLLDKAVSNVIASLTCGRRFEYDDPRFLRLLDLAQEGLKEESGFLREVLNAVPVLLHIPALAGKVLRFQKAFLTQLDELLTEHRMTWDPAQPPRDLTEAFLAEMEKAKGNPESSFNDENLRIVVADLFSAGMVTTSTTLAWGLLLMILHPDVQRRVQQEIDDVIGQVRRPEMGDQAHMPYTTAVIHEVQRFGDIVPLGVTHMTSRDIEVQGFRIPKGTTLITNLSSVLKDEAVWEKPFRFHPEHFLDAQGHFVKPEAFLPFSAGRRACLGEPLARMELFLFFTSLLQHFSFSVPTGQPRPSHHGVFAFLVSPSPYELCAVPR

DAT = target: T3, DAT (Homo sapiens, UniProt Q01959); experiment: Neurotransmitter Transporter Uptake Assay, DAT blocker mode; assay type: cell-based
T3 construct: expressed in transfected cells
T3 sequence (Q01959 whole entry, species assumed): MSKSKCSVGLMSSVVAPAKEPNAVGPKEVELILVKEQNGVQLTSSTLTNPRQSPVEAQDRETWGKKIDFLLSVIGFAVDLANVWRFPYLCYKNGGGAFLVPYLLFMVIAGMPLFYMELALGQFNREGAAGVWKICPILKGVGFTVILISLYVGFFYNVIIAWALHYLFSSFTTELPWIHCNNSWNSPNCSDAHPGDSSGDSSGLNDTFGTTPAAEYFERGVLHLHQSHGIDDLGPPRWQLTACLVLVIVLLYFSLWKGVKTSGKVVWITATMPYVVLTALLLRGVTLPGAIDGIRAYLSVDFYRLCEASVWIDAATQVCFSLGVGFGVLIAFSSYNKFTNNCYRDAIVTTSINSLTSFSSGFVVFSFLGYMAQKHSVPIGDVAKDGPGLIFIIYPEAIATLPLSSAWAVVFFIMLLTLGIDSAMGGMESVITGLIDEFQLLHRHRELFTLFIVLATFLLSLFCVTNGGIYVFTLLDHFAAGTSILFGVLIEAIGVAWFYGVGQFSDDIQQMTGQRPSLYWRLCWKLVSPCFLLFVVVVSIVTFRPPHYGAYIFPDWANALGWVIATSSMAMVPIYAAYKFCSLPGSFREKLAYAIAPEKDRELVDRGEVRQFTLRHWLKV

[3] = target: T4, serotonin receptor 2B (HTR2B) (Homo sapiens, UniProt P41595); experiment: Calcium No Wash Plus calcium mobilization assay, HTR2B antagonist mode; assay type: cell-based
T4 construct: expressed in transfected cells
T4 sequence (P41595 whole entry, species assumed): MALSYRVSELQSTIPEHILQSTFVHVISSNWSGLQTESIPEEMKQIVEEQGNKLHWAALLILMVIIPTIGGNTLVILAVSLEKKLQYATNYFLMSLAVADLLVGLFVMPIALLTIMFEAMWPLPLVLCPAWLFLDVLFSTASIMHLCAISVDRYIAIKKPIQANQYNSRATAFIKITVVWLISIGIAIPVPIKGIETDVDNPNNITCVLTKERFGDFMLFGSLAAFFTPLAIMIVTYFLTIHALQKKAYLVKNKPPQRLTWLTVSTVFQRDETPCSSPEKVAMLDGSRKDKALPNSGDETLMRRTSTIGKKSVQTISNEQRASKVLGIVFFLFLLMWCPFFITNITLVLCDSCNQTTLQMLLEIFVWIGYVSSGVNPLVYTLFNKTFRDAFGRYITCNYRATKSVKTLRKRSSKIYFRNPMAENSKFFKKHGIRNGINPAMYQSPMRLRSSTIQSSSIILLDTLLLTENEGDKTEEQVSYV
Method: Methods—Calcium Mobilization: GPCR activity of serotonin receptor 2B (HTR2B), among others, was measured using the Calcium No Wash^Plus assay, which monitors calcium mobilization in cell lines expressing Gq-coupled GPCRs by loading a calcium-sensitive dye into cells.
Cell lines were expanded from freezer stocks and seeded into multi-well microplates. Then, the plates were incubated at 37° C. for an appropriate amount of time and loaded with Dye Loading buffer. To determine compound agonist activity, cells were incubated with the sample to induce a response, and HBSS/20 mM Hepes was added using a FLIPR Tetra (MDS). Activity was measured on a FLIPR Tetra. Calcium mobilization was monitored for 2 minutes.
To determine compound antagonist activity, cells were pre-incubated with the sample followed by an post-incubation administration of the compound with 3×EC80 agonist using FLIPR. Compound antagonist activity was measured on a FLIPR Tetra (MDS) and calcium mobilization was monitored for 2 minutes.
Compound activity was analyzed using CBIS data analysis suite (ChemInnovation, CA). For agonist mode assays, percentage activity was calculated using the following formula: % Activity=100%×(mean RFU of test sample−mean RFU of vehicle control)/(mean MAX RFU control ligand −mean RFU of vehicle control). […]

HTR1B = target: T5, HTR1B (Homo sapiens, UniProt P28222); experiment: Hit Hunter cAMP assay, HTR1B agonist mode; assay type: cell-based
T5 construct: expressed in transfected cells
T5 sequence (P28222 whole entry, species assumed): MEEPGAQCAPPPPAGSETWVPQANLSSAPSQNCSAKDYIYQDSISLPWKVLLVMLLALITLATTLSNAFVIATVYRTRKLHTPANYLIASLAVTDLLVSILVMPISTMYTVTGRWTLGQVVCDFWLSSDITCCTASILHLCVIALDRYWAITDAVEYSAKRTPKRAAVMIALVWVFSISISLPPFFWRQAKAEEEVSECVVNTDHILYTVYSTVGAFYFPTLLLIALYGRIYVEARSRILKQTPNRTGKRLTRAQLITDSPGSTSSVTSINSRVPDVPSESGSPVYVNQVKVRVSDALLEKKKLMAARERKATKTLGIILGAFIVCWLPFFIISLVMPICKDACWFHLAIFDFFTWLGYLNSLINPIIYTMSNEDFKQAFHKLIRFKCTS
Method: Methods—cAMP: Activation of HTR1B and GRM2, among other targets, was determined using the Hit Hunter® cAMP assay. The assay monitors the activation of a GPCR via Gi and Gs secondary messenger signaling, using β-Gal as a functional reporter.
To determine agonistic activity at Gi/Gs, cells were expanded from freezer stocks, seeded into multi-well plates, and incubated at 37° C. prior to addition of a test compound. To determine Gi/Gs agonism, media was aspirated from cells and replaced with 15 μL 2:1 HBSS/10 mM HEPES:cAMP XS+Ab reagent. Concentrated (4×) test compound in assay buffer was added to cells and incubated at 37° C. or room temperature for 30 or 60 minutes. For Gi agonist activation, cells were incubated with EC80 forskolin in addition to a test compound. Vehicle concentration was 1%.
For Gs agonist mode assays, percentage activity was calculated using the following formula: % Activity=100%×(mean RLU of test sample−mean RLU of vehicle control)/(mean RLU of MAX control−mean RLU of vehicle control).
For Gi agonist mode assays, percentage activity was calculated using the following formula: % Activity=100%×(1−(mean RLU of test sample−mean RLU of MAX control)/(mean RLU of vehicle control−mean RLU of MAX control)).

[4] = cited from earlier work; remark: listed apart in the source

T1 sequence (P23975 whole entry): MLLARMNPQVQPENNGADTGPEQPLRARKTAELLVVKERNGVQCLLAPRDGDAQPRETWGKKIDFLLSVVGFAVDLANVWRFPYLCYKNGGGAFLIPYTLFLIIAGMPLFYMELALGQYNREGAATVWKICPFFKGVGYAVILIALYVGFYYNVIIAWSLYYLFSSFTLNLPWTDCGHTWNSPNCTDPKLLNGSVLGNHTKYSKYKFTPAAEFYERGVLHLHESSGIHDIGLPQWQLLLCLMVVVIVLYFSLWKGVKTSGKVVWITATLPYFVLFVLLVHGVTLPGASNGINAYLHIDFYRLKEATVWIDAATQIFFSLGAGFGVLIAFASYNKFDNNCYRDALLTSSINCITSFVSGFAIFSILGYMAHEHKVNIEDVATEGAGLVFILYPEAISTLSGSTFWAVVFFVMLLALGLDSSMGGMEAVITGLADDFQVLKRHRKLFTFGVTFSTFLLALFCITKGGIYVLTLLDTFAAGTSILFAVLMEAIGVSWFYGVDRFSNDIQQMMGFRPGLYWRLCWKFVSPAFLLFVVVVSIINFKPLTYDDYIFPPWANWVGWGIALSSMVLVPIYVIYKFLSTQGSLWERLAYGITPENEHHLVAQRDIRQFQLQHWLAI

SMILES	interoceptive effects ([1]; deuterium substitution at the methylenedioxy ring moiety)	hyperthermic effects ([1]; in vivo)	IC50 (NET) [µM]	IC50 [2] [µM]	CYP2D6 inhibition (CYP2D6)	IC50 (DAT) [µM]	IC50 [3] [µM]	EC50 (HTR1B) [µM]	efficacy in severe PTSD ([4]; MDMA-assisted therapy compared to therapy with inactive placebo)	safety and tolerability ([4]; individuals with severe PTSD, even with comorbidities)
[2H]C1([2H])Oc2ccc(CC(C)NC)cc2O1 (stereo not drawn) [d2-MDMA]	does not impact MDMA's interoceptive effects	reduced potential for producing hyperthermic effects								
CNC(C)Cc1ccc2c(c1)OCO2 (stereo not drawn) [MDMA, 3,4-methylenedioxymethamphetamine]			2.49	3.19	inhibit CYP2D6	9.84	5.34	4.71	highly efficacious	safe and well-tolerated
[2H]C([2H])([2H])NC(C)Cc1ccc2c(c1)OCO2 (stereo not drawn) [MDMA-d3]			3.87	4.38		7.57	4.2	2.99		
